According to patent publication US20230115176A1 (Ra Pharmaceuticals, Inc., priority 2019, published 2023):

biological target: T1, Human C5 (Homo sapiens, UniProt P01031); experiment: Red blood cell (RBC) hemolysis assay, luminescent (Example 13, Table 22); assay type: cell-based; conditions: sheep EA cells, […] C5-depleted human serum, 0.5 nM human C5, 1 hour 37° C., luminescence; note: 1.5% C5-depleted human serum
T1 construct: purchased Complement Technology
Source text: Compound CU0136 is a racemic mixture of Compound CU0186 and CU0187. Numbers in parenthesis following compound numbers indicate alternate enantiomers (as distinguished by retention time during chromatographical separation).

T1 sequence (P01031 19-1676): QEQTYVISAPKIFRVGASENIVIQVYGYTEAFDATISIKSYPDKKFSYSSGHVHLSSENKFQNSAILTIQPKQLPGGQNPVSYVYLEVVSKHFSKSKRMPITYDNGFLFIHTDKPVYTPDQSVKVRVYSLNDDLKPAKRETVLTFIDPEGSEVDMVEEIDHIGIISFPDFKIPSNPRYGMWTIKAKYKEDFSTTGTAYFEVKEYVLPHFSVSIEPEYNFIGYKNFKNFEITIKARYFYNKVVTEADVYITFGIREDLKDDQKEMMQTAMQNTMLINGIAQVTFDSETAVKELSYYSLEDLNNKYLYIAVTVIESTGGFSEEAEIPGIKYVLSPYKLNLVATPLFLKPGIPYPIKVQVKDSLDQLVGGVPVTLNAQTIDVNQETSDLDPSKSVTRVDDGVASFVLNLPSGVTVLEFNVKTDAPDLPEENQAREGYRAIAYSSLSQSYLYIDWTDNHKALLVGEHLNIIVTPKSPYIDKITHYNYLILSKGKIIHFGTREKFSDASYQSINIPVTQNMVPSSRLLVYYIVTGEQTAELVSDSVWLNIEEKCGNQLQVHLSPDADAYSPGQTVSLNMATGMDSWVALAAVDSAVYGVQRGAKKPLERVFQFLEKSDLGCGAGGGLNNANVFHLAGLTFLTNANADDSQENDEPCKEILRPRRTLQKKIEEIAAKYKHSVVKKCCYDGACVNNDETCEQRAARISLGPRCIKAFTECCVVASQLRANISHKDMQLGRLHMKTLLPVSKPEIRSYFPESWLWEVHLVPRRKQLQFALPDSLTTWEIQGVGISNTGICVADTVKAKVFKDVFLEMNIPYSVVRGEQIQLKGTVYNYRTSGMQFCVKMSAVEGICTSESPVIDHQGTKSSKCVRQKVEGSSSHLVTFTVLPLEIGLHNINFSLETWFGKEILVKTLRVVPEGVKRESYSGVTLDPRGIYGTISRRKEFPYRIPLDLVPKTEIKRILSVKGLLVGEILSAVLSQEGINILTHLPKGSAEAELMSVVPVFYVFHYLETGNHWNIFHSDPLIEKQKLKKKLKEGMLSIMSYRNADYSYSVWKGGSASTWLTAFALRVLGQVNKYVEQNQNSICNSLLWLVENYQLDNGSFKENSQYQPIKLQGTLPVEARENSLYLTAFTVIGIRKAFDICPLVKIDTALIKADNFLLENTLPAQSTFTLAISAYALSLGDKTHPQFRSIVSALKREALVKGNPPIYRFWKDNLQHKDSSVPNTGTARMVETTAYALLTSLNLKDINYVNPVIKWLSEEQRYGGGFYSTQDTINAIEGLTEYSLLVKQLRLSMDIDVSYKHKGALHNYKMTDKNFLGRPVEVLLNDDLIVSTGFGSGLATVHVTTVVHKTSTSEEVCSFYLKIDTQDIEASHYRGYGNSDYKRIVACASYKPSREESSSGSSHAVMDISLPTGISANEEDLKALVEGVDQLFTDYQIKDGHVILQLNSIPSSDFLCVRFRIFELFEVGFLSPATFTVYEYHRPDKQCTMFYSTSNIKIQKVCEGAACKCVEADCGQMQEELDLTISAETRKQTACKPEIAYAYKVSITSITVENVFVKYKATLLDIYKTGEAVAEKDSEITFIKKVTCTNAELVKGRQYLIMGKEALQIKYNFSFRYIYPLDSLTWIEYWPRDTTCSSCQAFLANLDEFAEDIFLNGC

Compound | IC50
CCCCCOc1cc(N2CCCN(Cc3ccc(CC(=O)N4CCCC4)cc3OC)C2=O)ccc1OC [CU0006] | 19.5 nM
CCCCCOc1cc(N2CCN(Cc3ccccc3Cl)C2=O)ccc1OC [CU0009] | 203 nM
CCCCCOc1cc(N2CCCN(Cc3ccccc3C3CC3)C2=O)ccc1OC [CU0015] | 519 nM
CCCCCOc1cc(N2CCN(C[C@@H](O)c3ccccc3)C2=O)ccc1OC [CU0016] | 2620 nM
CCCCCOc1cc(N2CCCN(Cc3cccc4c3ccn4Cc3cccnc3)C2=O)ccc1OC [CU0023] | 20.7 nM
CCCCCOc1cc(N2CCCN(Cc3cccc4c3ccn4CC(=O)N(C)C)C2=O)ccc1C1CC1 [CU0026] | 62.5 nM
CCCCCOc1cc(N2CCN(Cc3ccnc4c3ccn4CC(=O)N(C)C)C2=O)ccc1C1CC1 [CU0034] | 1230 nM
COc1ccc(N2CCCCN(Cc3ccnc4c3ccn4CC(=O)N(C)C)C2=O)cc1OCCCC(C)C [CU0038] | 267 nM
CCCCCOc1cc(N2CCCN(C(C)c3ccnc4c3ccn4C3CCN(C)C3=O)C2=O)ccc1OC (centres unmarked) [CU0040(1)] | 66.5 nM
CCCCCOc1cc(N2CCCN(C(C)c3ccnc4c3ccn4C3CCN(C)C3=O)C2=O)ccc1OC (centres unmarked) [CU0040(2)] | 76.3 nM
CCCCCOc1cc(N2CCN(Cc3ccnc4c3ccn4CC(=O)N3CCOC(COC)C3)C2=O)ccc1OC (centres unmarked) [CU0047] | 3140 nM
CCCCCOc1cc(N2CCN(Cc3ccnc4c3ccn4CC(=O)N3CCCOCC3)C2=O)ccc1OC [CU0052] | 61.4 nM
CCCCCOc1cc(N2CCCN(Cc3ccnc4c3ccn4CC(=O)N3CCCOCC3)C2=O)ccc1OC [CU0053] | 23.3 nM
CCCCCOc1cc(N2CCCN(Cc3ccnc4c3ccn4CC(=O)N3CCCOCC3)C2=O)ccc1C1CC1 [CU0054] | 117 nM
CCCCCOc1cc(N2CCN(Cc3ccnc4c3ccn4CC(=O)N3CCNC(=O)C3)C2=O)ccc1OC [CU0058] | 2490 nM
CCCCCOc1cc(N2CCCN(Cc3cccc4nc(C)oc34)C2=O)ccc1OC [CU0066] | 243 nM
CCCCCOc1cc(N2CCCN(Cc3cccc4nc(CC)oc34)C2=O)ccc1OC [CU0067] | 946 nM
CCCCCOc1cc(N2CCCN(Cc3ccc(CC(=O)O)cc3OC)C2=O)ccc1OC [CU0102] | 53.7 nM
CCCCCOc1cc(N2CCCN(Cc3ccc(CC(=O)N(C)C)cc3OC)C2=O)ccc1C1CC1 [CU0113] | 54.8 nM
CCCCCOc1cc(N2CCCN(Cc3ccc(CC(=O)N4CCCOCC4)cc3OC)C2=O)ccc1C1CC1 [CU0114] | 99.1 nM
CCCCCOc1cc(N2CCCN(Cc3cccc(-c4cnn(C5COC5)c4)c3F)C2=O)ccc1OC [CU0119] | 52 nM

Compound | IC50
CCCCCOc1cc(N2CCCN(Cc3cccc(-c4cnn(C(C)OCC)c4)c3F)C2=O)ccc1OC (centres unmarked) [CU0125] | 73.6 nM
CCCCCOc1cc(N2CCCN(Cc3cccc(-c4cnn(CC(C)C)c4)c3F)C2=O)ccc1OC [CU0126] | 153 nM
CCCCCOc1cc(N2CCCN(Cc3cccc(C4=CCNCC4)c3F)C2=O)ccc1OC [CU0128] | 60.6 nM
CCCCCOc1cc(N2CCCN(Cc3cccc(N4CCN(C5COC5)CC4)c3F)C2=O)ccc1OC [CU0130] | 147 nM
CCCCCOc1cc(N2CCCN(Cc3cccc(N4CCC(C(C)(C)O)C4)c3F)C2=O)ccc1OC (centres unmarked) [CU0131] | 151 nM
CCCCCOc1cc(N2CCCN(Cc3cccc(N4CCOCC4)c3F)C2=O)ccc1OC [CU0132] | 301 nM
CCCCCOc1cc(N2CCCN(Cc3cccc(N4CCN(C)CC4)c3F)C2=O)ccc1OC [CU0133] | 82.2 nM
CCCCCOc1cc(N2CCCN(Cc3ccc(CC(=O)NC4CCN(C(C)=O)C4)cc3Cl)C2=O)ccc1OC (centres unmarked) [CU0134] | 16.1 nM
CCCCCOc1cc(N2CCCN(Cc3ccc(CC(=O)NC4CCN(C(C)C)CC4)cc3Cl)C2=O)ccc1OC [CU0135] | 14.5 nM
CCCCCOc1cc(N2CCCN(Cc3ccc(CNC(=O)OC)cc3OC)C2=O)ccc1OC [CU0137] | 10 nM
CCCCCOc1cc(N2CCCN(Cc3ccc(CCOC(=O)N4CCCC4)cc3OC)C2=O)ccc1OC [CU0138] | 55.4 nM
CCCCCOc1cc(N2CCCN(Cc3ccc(CCn4ccnc4)cc3OC)C2=O)ccc1OC [CU0139] | 91.7 nM
COc1cc(CC(=O)NC2CCN(C(C)=O)C2)ccc1CN1CCCN(c2ccc(OC)c(OCCCC(C)(F)F)c2)C1=O (centres unmarked) [CU0142] | 18.3 nM
COc1ccccc1CN1CCCN(c2ccc(OC)c(OCCCC(C)(F)F)c2)C1=O [CU0143] | 23.3 nM
CCCCCOc1cc(N2CCCN(Cc3ccc(F)c(C4=CCNCC4)c3)C2=O)ccc1OC [CU0144] | 109 nM
COc1cc(CC(=O)N2CCCOCC2)ccc1CN1CCCN(c2ccc(OC)c(OCCCC(C)(F)F)c2)C1=O [CU0146] | 12.5 nM
CCCCCOc1cc(N2CCCN(Cc3ccc(CCn4ccnn4)cc3OC)C2=O)ccc1OC [CU0147] | 46.4 nM
CCCCCOc1cc(N2CCCN(Cc3ccc(CCn4cnnn4)cc3OC)C2=O)ccc1OC [CU0148] | 36 nM
CCCCCOc1cc(N2CCCN(Cc3ccc(CN(C)C(=O)OC)cc3OC)C2=O)ccc1OC [CU0149] | 24.1 nM
CCCCCOc1cc(N2CCCN(Cc3ccc(F)c(-c4cnn(C5CCN(C)CC5)c4)c3)C2=O)ccc1OC [CU0150] | 87.6 nM
CCCCCOc1cc(N2CCCN(Cc3cc(C4=CCNCC4)ccc3OC)C2=O)ccc1OC [CU0151] | 707 nM

Compound | IC50
CCCCCOc1cc(N2CCCN(Cc3cc(-c4cnn(C5CCN(C)CC5)c4)ccc3OC)C2=O)ccc1OC [CU0152] | 146 nM
CCCCCOc1cc(N2CCCN(Cc3ccc(Br)cc3OC)C2=O)ccc1OC [CU0153] | 233 nM
CCCCCOc1cc(N2CCCN(Cc3cccc(C4=CCNCC4)c3OC)C2=O)ccc1OC [CU0155] | 43.7 nM
CCCCCOc1cc(N2CCCN(Cc3cc(OC)cc(C4=CCNCC4)c3)C2=O)ccc1OC [CU0156] | 241 nM
CCCCCOc1cc(N2CCCN(Cc3cccc(-c4cnn(C5CCN(C)CC5)c4)c3OC)C2=O)ccc1OC [CU0157] | 146 nM
CCCCCOc1cc(N2CCCN(Cc3cc(OC)cc(-c4cnn(C5CCN(C)CC5)c4)c3)C2=O)ccc1OC [CU0158] | 27.8 nM
CCCCCOc1cc(N2CCCN(Cc3ccc(CCO)cc3OC)C2=O)ccc1OC [CU0159] | 98.8 nM
COc1cc(Cl)ccc1CN1CCCN(c2ccc(OC)c(OCc3ccccc3)c2)C1=O [CU0162] | 2870 nM
COc1cc(F)ccc1CN1CCCN(c2ccc(OC)c(OCc3ccccc3)c2)C1=O [CU0163] | 1000 nM
COc1ccc(F)cc1CN1CCCN(c2ccc(OC)c(OCc3ccccc3)c2)C1=O [CU0164] | 592 nM
CCCCCOc1cc(N2CCCN(Cc3ccc(F)cc3OC)C2=O)ccc1OC [CU0165] | 36 nM
CCCCCOc1cc(N2CCCN(Cc3ccc(Cl)cc3OC)C2=O)ccc1OC [CU0166] | 92.1 nM
C=CCCCOc1cc(N2CCCN(Cc3cc(F)ccc3OC)C2=O)ccc1OC [CU0167] | 39.9 nM
COc1ccc(F)cc1CN1CCCN(c2ccc(OC)c(OCC3CCCC3)c2)C1=O [CU0168] | 232 nM
CCC#CCOc1cc(N2CCCN(Cc3cc(F)ccc3OC)C2=O)ccc1OC [CU0169] | 82.4 nM
CCC(F)(F)CCOc1cc(N2CCCN(Cc3ccc(CC(=O)N(C)C)cc3OC)C2=O)ccc1OC [CU0171] | 45.1 nM
CCCCCOc1cc(N2CCCN(Cc3ccc(CN4CCOCC4)cc3OC)C2=O)ccc1OC [CU0172] | 37.3 nM
CCC(F)(F)CCOc1cc(N2CCCN(Cc3ccc(CC(=O)N4CCCOCC4)cc3OC)C2=O)ccc1OC [CU0174] | 36.7 nM
CCC(F)(F)CCOc1cc(N2CCCN(Cc3ccccc3OC)C2=O)ccc1OC [CU0176] | 111 nM
C#CCCCOc1cc(N2CCCN(Cc3cc(F)ccc3OC)C2=O)ccc1OC [CU0179] | 156 nM
COc1ccc(F)cc1CN1CCCN(c2ccc(OC)c(OCc3ccc(C)cc3)c2)C1=O [CU0180] | 411 nM

Compound | IC50
COc1ccc(F)cc1CN1CCCN(c2ccc(OC)c(OCc3cccc(C)c3)c2)C1=O [CU0181] | 119 nM
COc1ccc(F)cc1CN1CCCN(c2ccc(OC)c(OCc3ccccc3C)c2)C1=O [CU0182] | 936 nM
COc1ccc(F)cc1CN1CCCN(c2ccc(OC)c(OCCCc3ccccc3)c2)C1=O [CU0183] | 238 nM
COc1ccc(F)cc1CN1CCCN(c2ccc(OC)c(OCC[C@@H]3C[C@@H]4CC[C@H]3C4)c2)C1=O [CU0184] | 32.4 nM
COc1ccc(F)cc1CN1CCCN(c2ccc(OC)c(OCCC3CCCC3)c2)C1=O [CU0185] | 183 nM
CCCCCOc1cc(N2CCCN(Cc3ccc(CCOCCN4CCCC4)cc3OC)C2=O)ccc1OC [CU0189] | 413 nM
CCCCCOc1cc(N2CCCN(Cc3ccc(CNC(=O)C4CN(C)C4)cc3OC)C2=O)ccc1OC [CU0191] | 87.9 nM
CCCCCOc1cc(N2CCCN(Cc3ccc(CNC(=O)OCC)cc3OC)C2=O)ccc1OC [CU0192] | 19.1 nM
COc1ccc(F)cc1CN1CCCN(c2ccc(OC)c(OCCc3ccccc3)c2)C1=O [CU0193] | 45 nM
CC/C=C\COc1cc(N2CCCN(Cc3cc(F)ccc3OC)C2=O)ccc1OC [CU0194] | 94.6 nM
COc1ccc(F)cc1CN1CCCN(c2ccc(OC)c(OCCCC(F)(F)C(F)(F)F)c2)C1=O [CU0195] | 49 nM
CCC(F)(F)CCOc1cc(N2CCCN(Cc3ccc(CC(=O)N4CCO[C@H](COC)C4)cc3OC)C2=O)ccc1OC [CU0197] | 31.6 nM
COc1ccc(F)cc1CN1CCCN(c2ccc(OC)c(OCC3CC4(CCC4)C3)c2)C1=O [CU0198] | 70.1 nM
COc1cc(CC(=O)N(C)C)ccc1CN1CCCN(c2ccc(OC)c(OCc3ccccc3)c2)C1=O [CU0199] | 370 nM
CCCCCOc1cc(N2CCCN(Cc3ccc(C(O)c4nccn4C)cc3OC)C2=O)ccc1OC (centres unmarked) [CU0200] | 8.9 nM
CCCCCOc1cc(N2CCCN(Cc3ccc(CNC(=O)OC4CC4)cc3OC)C2=O)ccc1OC [CU0202] | 10.8 nM
CCCCCOc1cc(N2CCCN(Cc3ccc(CCOC(C)C)cc3OC)C2=O)ccc1OC [CU0203] | 30 nM
CCCCCOc1cc(N2CCCN(Cc3ccc(CCOC(=O)N(C)C)cc3OC)C2=O)ccc1OC [CU0204] | 21.6 nM
COc1ccc(F)cc1CN1CCCN(c2ccc(OC)c(OCCC[C@H]3C[C@@H]3C)c2)C1=O [CU0205] | 5.1 nM
COc1ccc(F)cc1CN1CCCN(c2ccc(OC)c(OCCC[C@H]3C[C@H]3C)c2)C1=O [CU0206] | 11.9 nM
